As usually defined, the Kp is the ratio of the level in a tissue or fluid to that in plasma or blood.

SMILES strings stand for the structures. Where two headings read alike, the source gives them in different places.

Consider 4 molecules from US20220127258A1, “AROMATIC RING OR HETEROAROMATIC RING COMPOUNDS, PREPARATION METHOD THEREFOR AND MEDICAL USE THEREOF” (The National Institutes of Pharmaceutical R&D Co., Ltd., priority 2019, published 2022).

Data set [1] is described as follows: Plasma and liver concentration of the compound after 4 days of administration in the cholestasis rat induced by ANIT. The data set is classed as in vivo, SD rats. The following applies: for concentration at 2 h / concentration at 4 h / Kp at 2 h / Kp at 4 h: SD, oral; for Kp at 2 h / Kp at 4 h: liver/plasma; for concentration at 4 h / Kp at 4 h / Liver concentration of the compound: 4 h. How it is done:
Sample formulation: The compound of the present invention was added to DMSO, and dissolved completely by ultrasound. 0.5% CMC-Na was added to constant volume (DMSO: 0.5% CMC-Na=1:99), and the solution was homogenized by ultrasound for later use. After 3 to 5 days of acclimation, the animals were divided into 20 groups according to body weight: normal group, model group, Example 8 (3 mg/kg/d, 10 mg/kg/d) group, Example 11 (3 mg/kg/d, 10 mg/kg/d) group, Example 12 (3 mg/kg/d, 10 mg/kg/d) group, Example 14 (3 mg/kg/d, 10 mg/kg/d) group, Example 20 (3 mg/kg/d, 10 mg/kg/d) group, Example 22 (3 mg/kg/d, 10 mg/kg/d) group, Example 26 (3 mg/kg/d, 10 mg/kg/d) group, Example 28 (3 mg/kg/d, 10 mg/kg/d) group, and Example 29 (3 mg/kg/d, 10 mg/kg/d) group, with 10 rats for each group. Intragastric administration was conducted with an administration volume of 10 mL/kg, once a day, for a total of 4 days. On Day 2, ANIT (1-naphthyl isothiocyanate, Macklin, purity: 98%, item number: N814658, CAS number: 551-06-4, specification: 5 g/bottle, storage conditions: 2 to 8 degrees, batch number: C10116101) with a dose of 50 mg/kg and an administration volume of 5 mL/kg was administered intragastrically once to each animal (except for animals in the normal group) 4 hours after the administration. The animals were fasted on Day 4 morning. The animals were anesthetized by isoflurane inhalation using a small animal anesthesia machine. Blood was collected from the venous plexus behind the eyeball using a capillary glass tube (about 1 ml per animal), and then left to stand for about one hour. It was centrifuged at 3500 rpm for 10 minutes to obtain the serum. ALT, AST, GGT and TBA indexes as well as the plasma concentration of the compound were determined using an AU480 automatic biochemical analysis system (BECKMAN COULTER). Liver was collected, weighed, and cutted into pieces. Normal saline was added (liver weight: normal saline=1:2), and the mixture was homogenized and freezed. The concentration of the compound in liver was determined using an ultra performance liquid chromatograph (Shimadzu, LC 30AD) and triple quadrupole mass spectrometer (AB, TQ5500). The plasma concentration and liver concentration of the compound of the present invention after 4 days of administration in the cholestasis rat induced by ANIT are shown in Table 3, Table 4 and Table 5 below.

The nature of data set [2]: Visual inspection of solubility of test sample in extracellular fluid. The data set is classed as physicochemical. The following applies: 0.3 μM to 30 μM solutions in extracellular fluid pH 7.4, from DMSO stock. How it is done: Extracellular fluid: 140 mM NaCl, 3.5 mM KCl, 1 mM MgCl2, 2 mM CaCl2, 10 mM glucose, 10 mM HEPES, 1.25 mM NaH2PO4, pH=7.4 (adjusted by NaOH). The stock solution of the compound of Example 8 of the present invention (30.26 mM solution in DMSO) was successively diluted with 10 mL of extracellular fluid to obtain 0.3 μM, 1 μM, 3 μM, […], and 30 μM solutions. […] 10 mg of Cisapride was dissolved in 2066.29 μL of dimethyl sulfoxide (DMSO) to obtain a 10 mM stock solution. The Cisapride stock solution was successively diluted with dimethyl sulfoxide (DMSO) to obtain a total of 4 concentrations of 1 μM, 10 μM, 100 μM and 1 mM. Before the test, 10 μL of the diluent at each concentration was added to 10 mL of extracellular fluid to ensure that the DMSO concentration was 0.1%. The final working concentration of Cisapride was 1 nM, 10 nM, 100 nM and 1 μM.

The mark [3] stands for this setting: liver, 3 mg/kg/day, 3 mg/kg/d, read-out: Liver concentration of the compound.
The mark [4] stands for this setting: liver, 10 mg/kg/day, 10 mg/kg/d, read-out: Liver concentration of the compound.
Where [5] appears, read: plasma, 3 mg/kg/day, 3 mg/kg/d, read-out: Plasma concentration of the compound.
Setting [6] is: plasma, 10 mg/kg/day, 10 mg/kg/d, read-out: Plasma concentration of the compound.

Regarding `O=C(O)c1ccc(-c2nnc(N3[C@@H]4CC[C@H]3C[C@@H](OCc3c(-c5ccccc5OC(F)(F)F)noc3C3CC3)C4)o2)cc1` [Example 22, 4-(5-((1R,3r,5S)-3-((5-cyclopropyl-3-(2-(trifluoromethoxy)phenyl)isoxazol-4-yl)methoxy)-8-azabicyclo[3.2.1]octan-8-yl)-1,3,4-oxadiazol-2-yl)benzoic acid], the concentration at 2 h worked out at 3760 ng/g in data set [1] (setting [3]), 12300 ng/g in data set [1] (setting [4]), 440 ± 481 ng/mL in data set [1] (setting [5]) and 903 ± 348 ng/mL in data set [1] (setting [6]). The concentration at 4 h in data set [1] (setting [3]) turned out to be 3090 ng/g; in data set [1] (setting [4]), 9660 ng/g; in data set [1] (setting [5]), 278 ± 192 ng/mL; in data set [1] (setting [6]), 567 ± 242 ng/mL. Besides, the Kp at 2 h is 16.1 ± 10.9 in data set [1] (3 mg/kg/day, 3 mg/kg/d) and 14.2 ± 2.1 in data set [1] (10 mg/kg/day, 10 mg/kg/d). Besides, the Kp at 4 h in data set [1] (3 mg/kg/day, 3 mg/kg/d) was found to be 14.4 ± 6.5; in data set [1] (10 mg/kg/day, 10 mg/kg/d), 19.2 ± 6.9.
Consider `Cc1cc(C(=O)O)ccc1-c1nnc(N2[C@@H]3CC[C@H]2C[C@@H](OCc2c(-c4c(Cl)cccc4Cl)noc2C2CC2)C3)o1` [Example 14], for which the “Liver concentration of the compound” value in data set [1] (10 mg/kg/d) is listed as 5,093.6 ± 2,197.5 ng/g. Further, the concentration at 2 h in data set [1] (setting [3]) worked out at 1240 ng/g; in data set [1] (setting [4]) it was 7840 ng/g; in data set [1] (setting [5]), 168 ± 111 ng/mL; in data set [1] (setting [6]), 402 ± 238 ng/mL. The concentration at 4 h in data set [1] (setting [3]) was 1150 ng/g; in data set [1] (setting [5]), 172 ± 75.3 ng/mL; in data set [1] (setting [6]), 250 ± 72.4 ng/mL. Also, the Kp at 2 h in data set [1] (3 mg/kg/day, 3 mg/kg/d) is 7.4 ± 1.5; in data set [1] (10 mg/kg/day, 10 mg/kg/d), 21 ± 4.4. The Kp at 4 h was 7.1 ± 1.6 in data set [1] (3 mg/kg/day, 3 mg/kg/d) and 19.8 ± 7 in data set [1] (10 mg/kg/day, 10 mg/kg/d).
`O=C(O)c1ccc(-c2nnc(N3[C@@H]4CC[C@H]3C[C@@H](OCc3c(-c5c(Cl)cccc5Cl)noc3C3CC3)C4)o2)s1` [Example 11]: the “Liver concentration of the compound” value in data set [1] (10 mg/kg/d) is reported as 3,614.0 ± 1,961.3 ng/g. Besides, the concentration at 2 h stood at 1590 ng/g in data set [1] (setting [3]), 5660 ng/g in data set [1] (setting [4]), 401 ± 98.4 ng/mL in data set [1] (setting [5]) and 1160 ± 1040 ng/mL in data set [1] (setting [6]). Also, the concentration at 4 h in data set [1] (setting [3]) was found to be 1520 ng/g; in data set [1] (setting [5]), 340 ± 253 ng/mL; in data set [1] (setting [6]) it was 664 ± 739 ng/mL. Besides, the Kp at 2 h stood at 3.9 ± 1.4 in data set [1] (3 mg/kg/day, 3 mg/kg/d) and 9.5 ± 9.1 in data set [1] (10 mg/kg/day, 10 mg/kg/d). Also, the Kp at 4 h was 6.2 ± 3.9 in data set [1] (3 mg/kg/day, 3 mg/kg/d) and 15.5 ± 12.7 in data set [1] (10 mg/kg/day, 10 mg/kg/d).
With `O=C(O)c1ccc(-c2nnc(N3[C@@H]4CC[C@H]3C[C@@H](OCc3c(-c5c(Cl)cccc5Cl)noc3C3CC3)C4)o2)cc1` [Example 8, 4-(5-((1R,3r,5S)-3-((5-cyclopropyl-3-(2,6-dichlorophenyl)isoxazol-4-yl)methoxy)-8-azabicyclo[3.2.1]octan-8-yl)-1,3,4-oxadiazol-2-yl)benzoic acid], the concentration at 2 h in data set [1] (setting [3]) is 752 ± 419 ng/g; in data set [1] (setting [4]), 986 ± 355 ng/g; in data set [1] (setting [5]) it was 44.6 ± 36.9 ng/mL; in data set [1] (setting [6]) it was 50.4 ± 74.4 ng/mL. In addition, the concentration at 4 h in data set [1] (setting [3]) worked out at 1190 ± 162 ng/g; in data set [1] (setting [4]) it was 1190 ± 265 ng/g; in data set [1] (setting [5]) it was 130 ± 120 ng/mL; in data set [1] (setting [6]), 16.7 ± 16.4 ng/mL. Besides, the Kp at 2 h in data set [1] (3 mg/kg/day, 3 mg/kg/d) was 43.9 ± 65.2; in data set [1] (10 mg/kg/day, 10 mg/kg/d), 54.9 ± 37. Moreover, the Kp at 4 h was 61 ± 107 in data set [1] (3 mg/kg/day, 3 mg/kg/d) and 105 ± 48.6 in data set [1] (10 mg/kg/day, 10 mg/kg/d). The “solubility of the test sample, visually inspected” value in data set [2] is “completely dissolved without visible precipitation”.
